Reference: patent US12068150B2, “Substrate cleaning solution, and using the same, method for manufacturing cleaned substrate and method for manufacturing device” (Merck Patent GmbH, priority 2018, dated 2024)

assay: Evaluation of Solubility in 5.0 mass % ammonia water; assay type: physicochemical; conditions: component (A), 100 ppm and 1,000 ppm, shaken 3 hours, checked visually
Procedure: The solubility can be evaluated by known methods. For example, it can be determined under the condition of 20-35° C. (more preferably 25±2° C.) by providing a flask charged with 100 ppm of the above (A) or the below-mentioned (B) in 5.0 mass % ammonia water, covering the flask with a cap, shaking for 3 hours in a shaker, and confirming whether (A) or (B) is dissolved or not. The shaking may be stirring. Dissolution can be also judged visually. […] In the present specification, soluble includes slightly soluble in a broad sense. In the present specification, the solubility becomes low in the order of insoluble, hardly soluble and soluble. In the present specification, slightly soluble is less soluble than soluble and more soluble than hardly soluble in a narrow sense.
4 mg of each component (for example, 2,2-bis (4-hydroxyphenyl) propane) to be used thereafter is put in a 50 mL sample bottle, and 5.0 mass % ammonia water is added to make the total amount to 40 g. Covering this with a cap, it is shaken and stirred for 3 hours. This gives a liquid having a component concentration of 100 ppm.
The same procedure as described above is carried out except that the amount of each component added is changed to 40 mg, and a liquid having a component concentration of 1,000 ppm is obtained. Their solubility is checked visually. Evaluation criteria are as shown below.
X: When the dissolution residue is confirmed at 100 ppm and 1,000 ppm, it is judged to be insoluble or hardly soluble.
Y: When the dissolution residue is not confirmed at 100 ppm but confirmed at 1,000 ppm, it is judged to be slightly soluble.
Z: When the dissolution residue is confirmed at neither 100 ppm nor 1,000 ppm, it is judged to be soluble.

Row | Structure (SMILES) | (A) Solubitity
1 | Oc1ccc(C(c2ccccc2)(c2ccccc2)c2ccc(O)cc2)cc1 [A11, 4,4′-dihydroxytetraphenylmethane] | X (When the dissolution residue is confirmed at 100 ppm and 1,000 ppm, it is judged to be insoluble or hardly soluble.)

same assay, conditions: component (B), 100 ppm and 1,000 ppm, shaken 3 hours, checked visually

Row | Structure (SMILES) | (B) Solubitity
2 | CC(C)(c1ccc(O)cc1)c1ccc(O)cc1 [B1, 2,2-bis(4-hydroxyphenyl)propane] | Y (When the dissolution residue is not confirmed at 100 ppm but confirmed at 1,000 ppm, it is judged to be slightly soluble.)
3 | Oc1ccc2cc(O)ccc2c1 [B7, 2,6-naphthalenediol] | Y (When the dissolution residue is not confirmed at 100 ppm but confirmed at 1,000 ppm, it is judged to be slightly soluble.)
4 | Oc1ccc(-c2ccc(O)cc2)cc1 [B6, 4,4′-dihydroxybiphenyl] | Y (When the dissolution residue is not confirmed at 100 ppm but confirmed at 1,000 ppm, it is judged to be slightly soluble.)
5 | Cc1ccc(O)c(Cc2cc(C)cc(Cc3cc(C)ccc3O)c2O)c1 [B4, 2,6-bis[(2-hydroxy-5-methylphenyl)methyl]-4-methylphenol] | Y (When the dissolution residue is not confirmed at 100 ppm but confirmed at 1,000 ppm, it is judged to be slightly soluble.)
6 | Oc1ccc(CC(c2ccc(O)cc2)(c2ccc(O)cc2)c2ccc(O)cc2)cc1 [B2, 1,2,2,2-tetrakis(4-hydroxyphenyl)ethane] | Z (When the dissolution residue is confirmed at neither 100 ppm nor 1,000 ppm, it is judged to be soluble.)
7 | CCC(C)(O)C#CC(C)(O)CC (centres unmarked) [B9, 3,6-dimethyl-4-octin-3,6-diol] | Z (When the dissolution residue is confirmed at neither 100 ppm nor 1,000 ppm, it is judged to be soluble.)
8 | Cc1ccc(O)c(Cc2cc(C)ccc2O)c1 [B5, 2,2′-methylenebis(4-methylphenol)] | Z (When the dissolution residue is confirmed at neither 100 ppm nor 1,000 ppm, it is judged to be soluble.)
9 | OC1CCCC(O)C1 (centres unmarked) [B3, 1,3-cyclohexanediol] | Z (When the dissolution residue is confirmed at neither 100 ppm nor 1,000 ppm, it is judged to be soluble.)
10 | CC(C)(O)C#CC(C)(C)O [B8, 2,5-dimethyl-3-hexyne-2,5-diol] | Z (When the dissolution residue is confirmed at neither 100 ppm nor 1,000 ppm, it is judged to be soluble.)
11 | CC(C)(C)c1cc(O)c(C(C)(C)C)cc1O [B10, 2,5-di-tert-butylhydroquinone] | Z (When the dissolution residue is confirmed at neither 100 ppm nor 1,000 ppm, it is judged to be soluble.)
